The values that follow are results of earlier work, collected in patent publication US20200368373A1, “OPTICAL IMAGING AGENTS TARGETING INFLAMMATION” (SORBONNE UNIVERSITE, priority 2018, published 2020).

This data set has as its target T1, selectin E (Mus musculus, UniProt Q00690).
T1 sequence (Q00690 22-612): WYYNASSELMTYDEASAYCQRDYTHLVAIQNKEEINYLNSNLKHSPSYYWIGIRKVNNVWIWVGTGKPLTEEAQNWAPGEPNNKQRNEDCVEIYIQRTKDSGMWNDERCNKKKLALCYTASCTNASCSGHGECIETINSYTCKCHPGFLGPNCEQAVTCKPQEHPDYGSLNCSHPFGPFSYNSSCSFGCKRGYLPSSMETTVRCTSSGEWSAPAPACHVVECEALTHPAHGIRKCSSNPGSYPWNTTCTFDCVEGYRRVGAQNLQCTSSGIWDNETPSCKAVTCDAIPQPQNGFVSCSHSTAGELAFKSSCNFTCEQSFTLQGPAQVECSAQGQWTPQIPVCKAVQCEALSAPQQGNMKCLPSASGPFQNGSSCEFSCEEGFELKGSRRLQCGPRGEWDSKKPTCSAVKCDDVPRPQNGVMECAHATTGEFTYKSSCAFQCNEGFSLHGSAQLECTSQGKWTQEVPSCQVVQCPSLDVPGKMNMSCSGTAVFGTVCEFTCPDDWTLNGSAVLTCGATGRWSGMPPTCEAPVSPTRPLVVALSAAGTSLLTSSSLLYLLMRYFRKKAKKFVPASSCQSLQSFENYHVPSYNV
The note with it: known in the art.

For Sialyl Lewis X, the “affinity for selectin E” value is “high affinity”.
